# Laboratory results reported in US10849976B2, “Compositions and methods for protecting saponin activity” (SarTec Corporation, priority 2016, dated 2020).
# Where two headings read alike, the source gives them in different places.
# Test system: glucose oxidase
# Text: In addition, a saponin molecule has a few to several glucose units bonded to it, depending on the exact plant from which the saponin is extracted. Each glucose unit bonded to the saponin may have up to four more hydroxy (—OH) groups attached and pointing outward from the glucose ring into the water solution. Glucose concentrations can be measured by an assay that depends on glucose oxidase acting upon glucose. However, glucose oxidase is prevented from acting upon glucose if borate is effectively bound to glucose. Thus, observing a declining amount of glucose as measured using a glucose oxidase based assay is indicative of borate binding to glucose, which in turn, serves as another indication of the efficacy of the saponin-protective agent.
# A standard glucose solution was prepared by weighing about 0.9 g of glucose and 0.450 g of NaCl into a 500.0 mL volumetric flask. Reverse osmosis water was added while mixing the reagents to reach the 500 mL total volume. Next, a 40.0 mL portion of the standard glucose solution was added to a 50 mL vial and 0.106 g of sodium borate was successively added resulting in a molar ratio of borate:glucose in a range of 1:1 to 6:1. Glucose levels were measured using a OneTouch Ultra 2 blood glucose meter.
# The glucose level for the standard glucose/saline solution was taken both before and after the borate-containing glucose solutions were measured for glucose concentration.
compound,measurement,setting,value
"O=BOB(O)OB(O)OB=O [Sodium Borate, sodium borate]",Protection of glucose from oxidation by glucose oxidase,3:1 borate:glucose molar ratio,effectively entirely protected
same,Glucose Meter Reading,"Borate:Glucose molar ratio 1:1, 0.106 sodium borate added",106 mg/dL
same,Glucose Meter Reading,"Borate:Glucose molar ratio 2:1, 0.212 sodium borate added",38 mg/dL
same,Glucose Meter Reading,"Borate:Glucose molar ratio 3:1, 0.318 sodium borate added",“Low Glucose < 20 mg/dL”
same,Glucose Meter Reading,"Borate:Glucose molar ratio 6:1, 0.636 sodium borate added",“Error 4”
